The text below walks through data of patent publication US11827628B2, “Compositions and methods for inhibition of the JAK pathway” (Rigel Pharmaceuticals, Inc., priority 2005, dated 2023).

Test [1] deals with up-regulation of ICAM-1 (CD54) by IFNγ in A549 lung epithelial cells. Kind of test: A549 Epithelial Line Stimulated with IFNγ (ICAM-1 surface expression, FACS). The settings on record: A549 epithelial line stimulated with IFNγ; ICAM-1 expression by FACS; read-out: IC50, Example 43. It is filed as cell-based, human. In a few lines:
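ICAM-1 (CD54) flow cytometry on live-gated A549 cells, geometric mean versus dose giving EC50. Cells received IFNγ at 75 ng/mL for 24 h after a 1 h compound pre-treatment spanning 30 μM to 14 nM in medium with 5% FBS and 0.3% DMSO.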

The test system of test [2] is Primary human T-cells. In words: Primary Human T-Cell Proliferation Assay Stimulated with IL-2 (CellTiter-Glo). The settings on record: primary human T-cell proliferation stimulated with IL-2; read-out: IC50, Example 42. It is filed as cell-based. In short, it runs like this: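 IC50 derived from CellTiter-Glo ATP signal after 72 hours of IL-2-driven proliferation at 37° C. Cells: primary human T-cells from blood, stimulated beforehand 3-4 days on anti-CD3/anti-CD28 with IL-2, then rested from IL-2 before compound exposure in duplicate; IL-2-free wells served as unstimulated control.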

For the compound `Cc1cc(Nc2nc(Nc3ccc(S(N)(=O)=O)cc3)ncc2F)ccc1OC(C)C#N` (racemic) [Compound I-60, Racemic N2-(4-Aminosulfonyl)phenyl-N4-[4-(1-cyano)ethoxy-3-methyl]phenyl-5-fluoro-2,4-pyrimidinediamine], the IC50 in test [1] stood at 7890 nM; in test [2] it was 2170 nM. In the case of `Cc1cc(Nc2nc(Nc3cccc(S(N)(=O)=O)c3)ncc2F)ccc1OC(C)C#N` (racemic) [Compound I-61, Racemic N2-(3-Aminosulfonyl)phenyl-N4-[4-(1-cyano)ethoxy-3-methyl]phenyl-5-fluoro-2,4-pyrimidinediamine], the IC50 in test [2] amounted to 123 nM. With `Cc1cc(Nc2nc(Nc3ccc(C)c(S(N)(=O)=O)c3)ncc2F)ccc1OC(C)C#N` (racemic) [Compound I-62, Racemic N2-(3-Aminosulfonyl-4-methyl)phenyl-N4-[4-(1-cyano)ethoxy-3-methyl]phenyl-5-fluoro-2,4-pyrimidinediamine], the IC50 in test [1] was 3530 nM; in test [2], 376 nM.

Regarding `Cc1cc(Nc2nc(Nc3ccc(S(N)(=O)=O)cc3)ncc2F)cc(C)c1OC(C)C#N` (racemic) [Compound I-63, Racemic N2-(4-Aminosulfonyl)phenyl-N4-[4-(1-cyano)ethoxy-3,5-dimethyl]phenyl-5-fluoro-2,4-pyrimidinediamine], the values for the half-inhibitory concentration (IC50) in test [1] and in test [2] were 34300 nM and 1310 nM, respectively. Turning to `COc1cc(Nc2ncc(F)c(Nc3ccc(OC(C)C#N)c(C)c3)n2)ccc1S(N)(=O)=O` (racemic) [Compound I-64, Racemic N2-(4-Aminosulfonyl-3-methoxy)phenyl-N4-[4-(1-cyano)ethoxy-3-methyl]phenyl-5-fluoro-2,4-pyrimidinediamine], the IC50 in test [1] came out at 5170 nM; in test [2], 1880 nM.

For the compound `CC(C#N)Oc1ccc(Nc2nc(Nc3cccc(S(N)(=O)=O)c3)ncc2F)cc1` (racemic) [Compound I-65, Racemic N2-(3-Aminosulfonyl)phenyl-N4-[4-(1-cyano)ethoxy]phenyl-5-fluoro-2,4-pyrimidinediamine], the IC50 in test [2] was 47.3 nM.

For the compound `CC(C#N)Oc1ccc(Nc2nc(Nc3ccc(S(N)(=O)=O)cc3)ncc2F)cc1` (racemic) [Compound I-66, Racemic N2-(4-Aminosulfonyl)phenyl-N4-[4-(1-cyano)ethoxy]phenyl-5-fluoro-2,4-pyrimidinediamine], in test [2], the IC50 was 287 nM. Take `Cc1ccc(Nc2ncc(F)c(Nc3ccc(OC(C)C#N)cc3)n2)cc1S(N)(=O)=O` (racemic) [Compound I-67, Racemic N2-(3-Aminosulfonyl-4-methyl)phenyl-N4-[4-(1-cyano)ethoxy]phenyl-5-fluoro-2,4-pyrimidinediamine]: the values for the IC50 in test [1] and in test [2] were 4620 nM and 157 nM, respectively. On the same counts, the results for `CC(C#N)Oc1ccc(Nc2nc(Nc3ccc(F)c(S(N)(=O)=O)c3)ncc2F)cc1` (racemic) [Compound I-68, Racemic N2-(3-Aminosulfonyl-4-fluoro)phenyl-N4-[4-(1-cyano)ethoxy]phenyl-5-fluoro-2,4-pyrimidinediamine] are 4960 nM and 482 nM. Taken in the same sequence, the figures for `Cc1cc(Nc2nc(Nc3ccc(F)c(S(N)(=O)=O)c3)ncc2F)ccc1OC(C)C#N` (racemic) [Compound I-69, Racemic N2-(3-Aminosulfonyl-4-fluoro)phenyl-N4-[4-(1-cyano)ethoxy-3-methyl]phenyl-5-fluoro-2,4-pyrimidinediamine] were 5640 nM and 1030 nM. For the compound `COc1cc(Nc2ncc(F)c(Nc3ccc(OC(C)C#N)cc3)n2)ccc1S(N)(=O)=O` (racemic) [Compound I-70, Racemic N2-(4-Aminosulfonyl-3-methoxy)phenyl-N4-[4-(1-cyano)ethoxy]phenyl-5-fluoro-2,4-pyrimidinediamine], the IC50 is 3430 nM in test [1] and 573 nM in test [2].

With `Cc1cc(Nc2nc(Nc3cccc(S(N)(=O)=O)c3)ncc2F)cc(C)c1OC(C)C#N` (racemic) [Compound I-71, Racemic N2-(3-Aminosulfonyl)phenyl-N4-[4-(1-cyano)ethoxy-3,5-dimethyl]phenyl-5-fluoro-2,4-pyrimidinediamine], the figures for the IC50 in test [1] and in test [2] were 3270 nM and 136 nM, respectively. On the same counts, the results for `Cc1ccc(Nc2ncc(F)c(Nc3cc(C)c(OC(C)C#N)c(C)c3)n2)cc1S(N)(=O)=O` (racemic) [Compound I-72, Racemic N2-(3-Aminosulfonyl-4-methyl)phenyl-N4-[4-(1-cyano)ethoxy-3,5-dimethyl]phenyl-5-fluoro-2,4-pyrimidinediamine] are 3310 nM and 303 nM. Taken in the same sequence, the figures for `N#CCOc1cccc(Nc2nc(Nc3cccc(S(N)(=O)=O)c3)ncc2F)c1` [Compound I-4, N2-(3-Aminosulfonyl)phenyl-N4-(3-cyanomethoxy)phenyl-5-fluoro-2,4-pyrimidinediamine] were 4860 nM and 178 nM.

In the case of `Cc1cc(Nc2nc(Nc3ccc(F)c(S(N)(=O)=O)c3)ncc2F)ccc1OCC#N` [Compound I-34, N2-(3-Aminosulfonyl-4-fluoro)phenyl-N4-(4-cyanomethoxy-3-methyl)phenyl-5-fluoro-2,4-pyrimidinediamine], in test [2], the IC50 came out at 806 nM. Turning to `Cc1cc(Nc2nc(Nc3ccc(F)c(S(N)(=O)=O)c3)ncc2F)cc(C)c1OCC#N` [Compound I-35, N2-(3-Aminosulfonyl-4-fluoro)phenyl-N4-(4-cyanomethoxy-3,5-dimethyl)phenyl-5-fluoro-2,4-pyrimidinediamine], the results for the IC50 in test [1] and in test [2] were 8580 nM and 1130 nM, respectively. As for `Cc1ccc(Nc2ncc(F)c(Nc3ccc(OCC#N)cc3)n2)cc1S(=O)(=O)NC(=O)C(C)C` [Compound I-37, N4-(4-Cyanomethyleneoxy)phenyl-5-fluoro-N2-(3-isobutyrylaminosulfonyl-4-methyl)phenyl-2,4-pyrimidinediamine], the IC50 in test [2] was found to be 3680 nM.

Regarding `Cc1ccc(Nc2ncc(F)c(Nc3ccc(OCC#N)c(Cl)c3)n2)cc1S(N)(=O)=O` [Compound I-43, N2-(3-Aminosulfonyl-4-methylphenyl)-N4-(3-chloro-4-cyanomethoxypheny)-5-fluoro-2,4-pyrimidinediamine], the IC50 turned out to be 36700 nM in test [1] and 183 nM in test [2]. Turning to `Cc1cnc(Nc2ccc(S(N)(=O)=O)cc2)nc1Nc1ccc(OCC#N)cc1` [Compound I-57, N2-(4-Aminosulfonylphenyl)-N4-(4-cyanomethoxyphenyl-5)-methyl-2,4-pyrimidinediamine], the IC50 in test [2] came to 53.1 nM.

For `Cc1ccc(Nc2ncc(F)c(Nc3ccc(OC(C)(C)C#N)cc3)n2)cc1S(N)(=O)=O` [Compound I-73, N2-(3-Aminosulfonyl-4-methyl)phenyl-N4-[4-(1-cyano-1-methyl)ethoxy]phenyl-5-fluoro-2,4-pyrimidinediamine], the figures for the IC50 in test [1] and in test [2] were 5560 nM and 728 nM, respectively.

`CC(C)(C#N)Oc1ccc(Nc2nc(Nc3ccc(F)c(S(N)(=O)=O)c3)ncc2F)cc1` [Compound I-74, N2-(3-Aminosulfonyl-4-fluoro)phenyl-N4-[4-(1-cyano-1-methyl)ethoxy]phenyl-5-fluoro-2,4-pyrimidinediamine]: the IC50 was found to be 10800 nM in test [1] and 1500 nM in test [2]. As for `CC(C)(C#N)Oc1ccc(Nc2nc(Nc3ccc(S(N)(=O)=O)cc3)ncc2F)cc1` [Compound I-75, N2-(4-Aminosulfonyl)phenyl-N4-[4-(1-cyano-1-methyl)ethoxy]phenyl-5-fluoro-2,4-pyrimidinediamine], the IC50 in test [2] amounted to 3300 nM. For `CC(C)(C#N)Oc1ccc(Nc2nc(Nc3cccc(S(N)(=O)=O)c3)ncc2F)cc1` [Compound I-76, N2-(3-Aminosulfonyl)phenyl-N4-[4-(1-cyano-1-methyl)ethoxy]phenyl-5-fluoro-2,4-pyrimidinediamine], the IC50 in test [1] is 5140 nM; in test [2], 196 nM. Regarding `Cc1ccc(Nc2ncc(F)c(Nc3cccc(OCC(N)=O)c3)n2)cc1S(N)(=O)=O` [Compound I-90, N4-(3-Aminocarbonylmethoxy)phenyl-N2-(3-aminosulfonyl-4-methyl)phenyl-5-fluoro-2,4-pyrimidinediamine], in test [2], the IC50 worked out at 2190 nM. Still for that read-out and setting: to `Cc1cc(Nc2nc(Nc3cccc(S(N)(=O)=O)c3)ncc2F)ccc1OCC(N)=O` [Compound I-92, N4-(4-Aminocarbonylmethoxy-3-methyl)phenyl-N2-(3-aminosulfonyl)phenyl-5-fluoro-2,4-pyrimidinediamine] belongs 543 nM. Same read-out and setting: then `Cc1ccc(Nc2ncc(F)c(Nc3ccc(OCC(N)=O)cc3)n2)cc1S(N)(=O)=O` [Compound I-94, N4-(4-Aminocarbonylmethoxy)phenyl-N2-(3-aminosulfonyl-4-methyl)phenyl-5-fluoro-2,4-pyrimidinediamine], with 563 nM; and `Cc1cc(Nc2nc(Nc3ccc(C)c(S(N)(=O)=O)c3)ncc2F)ccc1OCC(N)=O` [Compound I-95, N4-(4-Aminocarbonylmethoxy-3-methyl)phenyl-N2-(3-aminosulfonyl-4-methyl)phenyl-5-fluoro-2,4-pyrimidinediamine], with 325 nM; and `CNS(=O)(=O)c1cc(Nc2ncc(F)c(NCCc3ccc(-c4ccncc4)cc3)n2)ccc1C` [III-78, 5-Fluoro-N2-[3-N-(methyl)aminosulfonyl-4-methylphenyl]-N4-[4-(4-pyridinyl)phenethyl]-2,4-pyrimidinediamine], with 204 nM. On the same count and under the same terms, then `CNS(=O)(=O)c1cc(Nc2ncc(F)c(Nc3ccc(Cn4ccnc4)cc3)n2)ccc1C` [III-83, 5-Fluoro-N2-[3-(N-methylaminosulfony)-4-methylphenyl]-5-fluoro-N4-[4-(1-imidazolylmethyl)phenyl]-2,4-pyrimidinediamine], with 96.2 nM.

For orientation: IC50 means the concentration at which inhibition is half-maximal.
